Experimental data published in US7297689B2, “Method for preparing peritoneal dialysate” (Tokai University Educational System, priority 1998, dated 2007).
“Also recorded” adds a separate entry of the source. Where two headings read alike, the source gives them in different places.

What was measured:
[1] = trapping of methylglyoxal by albumin; conditions: 0.1 M phosphate buffer pH 7.4, 37° C., 50 μl of 100 mg/ml
Experimental: (§1) A solution (50 μl) consisting of glyoxal, methylglyoxal, and 3-deoxyglucosone (1 mM each) was further mixed with 400 μl of 0.1 M phosphate buffer (pH 7.4), 50 μl of 100 mg/ml bovine serum albumin solution, and the resulting mixture was incubated at 37° C. After the incubation, glyoxal, methylglyoxal, and 3-deoxyglucosone were converted to quinoxaline derivatives by using o-phenylenediamine, and then the respective concentrations were determined by high performance liquid chromatography.

[2] = trapping of glyoxal by albumin; conditions: 0.1 M phosphate buffer pH 7.4, 37° C., 50 μl of 100 mg/ml
Experimental: as §1

[3] = trapping of 3-deoxyglucosone by guanidine, aminoguanidine and biguanide agents; conditions: 0.1 M phosphate buffer pH 7.4, 37° C., agent 50 μl of 30 mM
Experimental: (§2) A mixture (50 μl) of glyoxal, methylglyoxal, and 3-deoxyglucosone (1 mM each) was further mixed with 400 μl of 0.1 M phosphate buffer (pH 7.4), and each (50 μl; 30 mM) of guanidine, aminoguanidine, or a biguanide agent. The resulting mixture was incubated at 37° C. Biguanide agents used were metformin, buformin, and phenformin. After the incubation, glyoxal, methylglyoxal, and 3-deoxyglucosone were converted to quinoxaline derivatives by using o-phenylenediamine, and then the respective concentrations were determined by high performance liquid chromatography.

[4] = generation of pentosidine on incubation of peritoneal dialysis effluent; design: species or system human; conditions: peritoneal dialysis effluent, 0, 1, 10, 100 mM, 37° C.
Experimental: An effluent from a peritoneal-dialysis patient, which had been kept overnight, was centrifuged, and the resulting supernatant was sterilized by filtration (pore size; 0.45 μm). Aminoguanidine (Tokyo Kasei Kogyo Co.) was added to the fluid at a final concentration of 0, 1, 10, or 100 mM. The mixture was incubated at 37° C. The incubation period was […] when assaying pentosidine, and 2 weeks when assaying protein carbonyl. The quantitative assay for pentosidine was performed using HPLC (SHIMADZU Co.; LC-10A) after the hydrolysis of proteins in 6 N HCl at 110° C. (T. Miyata et al., 1996, J. Am. Soc. Nephrol, 7:1198-1206; T. Miyata et al., 1996, Proc. Natl. Acad. Aci. USA, 93:2353-2358). The quantitative determination of protein carbonyl was carried out by measuring the absorbance (Nippon Molecular Devices Co.; SPECTRAmax 250) of hydrazone generated by the reaction of a carbonyl group after incubation with 2,4-dinitrophenylhydrazine (2,4-DNPH; Wako Pure Chemical Industries, Ltd.) (Levine, R. L. et al., Methods Enzymol., 233, 346-357 (1994)).

[5] = subcutaneously administered, mouse; cited from earlier work
[6] = amount of carbonyl compounds other than glucose in peritoneal dialysate (CAPD) effluent, 2,4-DNPH assay; design: species or system human; conditions: effluent, 0, 10, 50, 250 mM, unincubated and incubated (37° C. for 15 hours)
Experimental: The peritoneal dialysate effluent was recovered from the patient and filtered with a filter with a pore size of 0.45 μm. Aminoguanidine (Tokyo Kasei Kogyo Co.) was added to the fluid at a concentration of 0, 10, 50, or 250 mM to prepare a sample solution. An aliquot (1 ml) of the sample solution was added into a plastic tube with a screw cap, and the tube was incubated at 37° C. for 15 hours. The sample solutions were stored at −30° C. prior to the incubation.
Each of 400-μl aliquots of sample solutions was mixed with a 400-μl solution of 0.5 N hydrochloric acid containing 1.5 mM 2,4-DNPH (Wako Pure Chemical Industries, Ltd.), and then, the mixture was stirred at room temperature for 30 minutes to react the carbonyl compound with 2,4-DNPH. […] The aqueous layer was recovered and the absorbance thereof was measured at 360 nm in a spectrophotometric microplate reader (Nippon Molecular Devices Co.; SPECTRAmax250).
Aqueous solutions of various glucose concentrations were prepared and the amounts of carbonyl compounds derived from glucose were measured by the same method as described in (i); a calibration curve of glucose concentration vs. concentration of carbonyl compound was prepared based on this experiment.
Respective glucose concentrations of the samples were determined by using a glucose assay kit (Wako Pure Chemical Industries, Ltd.; Glucose CII-Test Wako). […]

[7] = subcutaneously administered, rat; cited from earlier work
[8] = generation of carbonyl compounds in peritoneal dialysate during heat sterilization (2,4-DNPH); conditions: acidic and neutral pH, sterilization 121° C.
Excerpt: (§3) Peritoneal dialysates contain a high concentration of glucose as an osmoregulatory agent (1.35-4.0 w/v %). Glucose is unstable to heating and undergoes degradation during heat sterilization or storage. Degradation products of glucose have been reported to include 5-hydroxymethylfurfural (5-HMF), levulinic acid, and acetaldehyde (Richard, J. U. et al., Fund. Appl. Toxic., 4: 843-853 (1984), Nilsson, C. B. et al., Perit. Dial. Int., 13: 208-213 (1993)). The inventors tested aminoguanidine for its inhibiting effect on the generation of carbonyl compounds during heat sterilization of a peritoneal dialysate, by monitoring the quantities of 5-HMF and carbonyl compounds. Since the degree of glucose degradation is affected by pH of the solution, two peritoneal dialysates of acidic pH (pH 5.3) and neutral pH (pH 7.0) were prepared to carry out the experiment. Sterilization temperature was 121° C.
Quantification of carbonyl compounds in the peritoneal dialysate was carried out in the same manner as described in Example 1 by measuring the absorbance after the reaction with 2,4-DNPH (Levine, R. L. et al., Methods Enzymol., 233: 346-357 (1994)). Sterilization temperature was 121° C.

[9] = trapping of methylglyoxal by guanidine, aminoguanidine and biguanide agents; conditions: 0.1 M phosphate buffer pH 7.4, 37° C., agent 50 μl of 30 mM
Experimental: as §2

[10] = generation of 5-HMF in peritoneal dialysate during heat sterilization (HPLC); conditions: sterilization 121° C.
Excerpt: as §3
5-HMF was assayed by high performance liquid chromatography (SHIMADZU Co.; LC-10A) (Nilsson, C. B. et al., Perit. Dial. Int., 13: 208-213 (1993)).

VEGF mRNA [11] = experiment: VEGF mRNA expression in cultured rat mesothelial cells (semiquantitative RT-PCR); assay type: cell-based; conditions: 3 hours
Experimental: Peritoneum was obtained from 6-week-old male CD (SD) IGS rats (Charles-River, Kanagawa, Japan). Mesothelial cells were isolated based on the method of Hjelle et al. (Hjelle J T et al., Perit Dial Int, 9: 341-347 (1989)) and cultured in Dulbecco's modified Eagle's medium (DMEM) containing 10% fetal bovine serum. The mesothelial cells at passage 7 to 10 were cultured for 3 hours in a CO2 incubator in the presence of various concentrations of glucose degradation products (glyoxal, methylglyoxal (Sigma, St. Louis, Mo.), or 3-deoxyglucosone (kindly provided from Fuji Memorial Research Institute, Otsuka Pharmaceutical Co., Kyoto, Japan). The expression of VEGF mRNA was analyzed by semiquantitative RT-PCR. Total RNA was isolated from the mesothelial cells using Rneasy Mini Kit (Qiagen, Germany). Five micrograms of the RNA was reverse-transcribed using oligo(dT)12-18 primers (Gibco BRL, Gaithersburg, Md.) with 200 units of RNase H-free reverse transcriptase (Superscript II: Gibco BRL) and PCR amplification was performed as described previously (Miyata T et al., J Clin Invest, 93: 521-528 (1994)). The sequences of the primers used for the amplification of rat VEGF were 5′-[…]-3′ (SEQ ID NO: 1) and 5′-[…]-3′ (SEQ ID NO: 2). The amplified product was 310 bp long. The primers used for the amplification of rat glyceraldehyde-3-phosphate dehydrogenase. (G3PDH) were 5′-[…]-3′ (SEQ ID NO: 3) and 5′-[…]-3′ (SEQ ID NO: 4) and amplified a 322 bp fragment. The G3PDH served as an internal RNA control to allow comparison of RNA levels among different specimens. […] PCR products resolved by electrophoresis in 1.5% agarose gel and stained with ethidium bromide were quantified by measuring the signal intensity with a quantification program (NIH image). […] Messenger RNA was determined in triplicate and the results were averaged for each experiment. […] The results were averaged and expressed as mean±S.D. The statistical significance was evaluated by analysis of variance (ANOVA). […]

VEGF protein = VEGF protein release into culture supernatant (ELISA); assay type: cell-based; conditions: human microvascular endothelial cells, 0, 200, 400 μM, 24 hours
Experimental: The release of VEGF protein into the culture supernatant was measured by ELISA for […] cultured for 24 hours in the presence of various concentrations of methylglyoxal. Human microvascular endothelial cells were purchased from Kurabo (Osaka, Japan) and cultured in VEGF-depleted EGM-2 medium (Takara, Tokyo, Japan). The cells were incubated with methylglyoxal in the same manner as rat peritoneum mesothelial cells. The VEGF protein in the culture supernatant prepared in duplicate was quantified by enzyme-linked immunosorbent assay (ELISA) using a kit (Quantikine: R&D Systems, Minneapolis, USA) according to the attached manual. The experiment was repeated three times. The results were statistically analyzed as described above.

VEGF mRNA [12] = experiment: VEGF mRNA expression and histology of peritoneal tissue of rats given daily intraperitoneal injections; assay type: in vivo, rat; conditions: daily intraperitoneal injection for 10 days
Experimental: To further assess the biological effects of methylglyoxal on VEGF mRNA expression in the peritoneum in vivo, rats were given various amounts of methylglyoxal into their peritoneal cavity for 10 days. Six-week-old male CD (SD) IGS rats were given a daily intraperitoneal injection of 50 ml/kg of a saline solution containing various concentrations of methylglyoxal for 10 days. Peritoneum was isolated from the parietal walls and investigated for VEGF mRNA expression. Experiments were performed as the above-mentioned in vitro experiments for rat mesothelial cells. However, mRNA was extracted from peritoneal tissues with ISOGEN (Nippon Gene, Tokyo, Japan). In addition, PCR amplification was performed for 28 cycles for VEGF mRNA and for 16 cycles for G3PDH mRNA.

VEGF mRNA [13] = experiment: VEGF mRNA expression in human endothelial cells (RT-PCR); assay type: cell-based; conditions: 0 to 400 μM
Experimental: VEGF mRNA expression was then assessed in endothelial cells cultured in the presence of various concentrations (0 to 400 μM) of methylglyoxal. Experiments were performed as those for rat mesothelial cells. However, primers used for human VEGF amplification were 5′-[…]-3′ (SEQ ID NO: 5) and 5′-[…]-3′ (SEQ ID NO: 6). The amplified fragment was 271 bp long. The same primers were used for human and rat G3PDH amplifications.

Bovine serum albumin: bovine serum albumin solution, 100 mg/ml; SH group-containing protein
concentration of methylglyoxal [1]: markedly reducing the concentrations of glyoxal and methylglyoxal
concentration of glyoxal [2]: markedly reducing the concentrations of glyoxal and methylglyoxal

N=C(N)NN [aminoguanidine]
concentration of 3-deoxyglucosone [3]: markedly reducing the concentration of 3-deoxyglucosone
generation of pentosidine [4]: inhibit the generation of pentosidine in a concentration-dependent manner
half-lethal dose [5]: 963 mg/kg
amounts of carbonyl compounds other than glucose [6]: decreased
half-lethal dose [7]: 1258 mg/kg
generation of carbonyl compounds [8]: effectively inhibited the generation of carbonyl compounds in a concentration-dependent manner
concentration of methylglyoxal [9]: markedly reducing the concentration of methylglyoxal; also recorded: drastically reduced the concentration of methylglyoxal
generation of 5-HMF ([10]; peritoneal dialysate acidic pH (pH 5.3)): effectively inhibited the generation of 5-HMF in a concentration-dependent manner
generation of 5-HMF ([10]; peritoneal dialysate neutral pH (pH 7.0)): effectively inhibited the generation of 5-HMF in a concentration-dependent manner

O=CC=O [glyoxal]
VEGF mRNA expression (VEGF mRNA [11]; 0 to 400 μM): neither glyoxal nor 3-deoxyglucosone modified VEGF expression

O=CC(=O)C[C@H](O)[C@H](O)CO [3-deoxyglucosone]
VEGF mRNA expression (VEGF mRNA [11]; 0 to 400 μM): neither glyoxal nor 3-deoxyglucosone modified VEGF expression

N=C(N)N [Guanidine, guanidine]
concentration of methylglyoxal [9]: markedly reducing the concentration of methylglyoxal

CC(=O)C=O [methylglyoxal]
VEGF protein released into culture supernatant (VEGF protein): dose-dependent increase of VEGF
peritoneal tissue on optical microscopy (VEGF mRNA [12]): unaffected
VEGF mRNA expression in parietal peritoneum (VEGF mRNA [12]; P<0.05): increased significantly
VEGF mRNA expression (VEGF mRNA [11]; 400 μM, P<0.0005): stimulated VEGF mRNA expression
VEGF mRNA expression (VEGF mRNA [13]): rose in a dose-dependent manner
